In general, melting point refers to the temperature, or range, at which the solid turns liquid.

The values that follow come from a melting point compilation (Tetko et al.; mined from patent text by program, amines drawn as free bases though some values may be those of a salt).

A value given as a limit tells only on which side of the number the result lay.

With `CCCCCCCOc1ccc2c(c1)N(CCCN1CCC(CCO)CC1)c1cccc(S(=O)(=O)N(C)C)c1S2`, the melting point amounted to 80 °C.
For `O=C(O)CCCCCCCCC=Cc1cccs1` the value was 61 to 62 °C; for `CCOC(=O)COc1ccc(OCC)cc1C(Nc1ccc(C(=N)NC(=O)OC(C)(C)C)cc1)C(=O)OCC` (racemic), 241 °C; for `CCOC(=O)C1=C(N)N=C(SC)C(C(=O)OCC)C1c1cccc([N+](=O)[O-])c1` (stereo not given), 144 °C.
Regarding `COC(=O)CC1OC(=O)c2ccccc21` (stereo not given), the melting point lay within 62 to 63 °C.
For `CCCNC(=O)C1C=C2CC=C(OC)C=C2N1CCNC(C)=O` (stereo not given) the value was 127 to 128 °C; for `O=C(CI)NCCSC=CSCCNC(=O)CI`, 129 °C; for `CC(C#Cc1cccc(Oc2ccc(F)cc2)c1)N(O)C(N)=O` (stereo not given), 137 to 138 °C.
For `O=C1CN=C(c2cccc(Cl)c2)c2cc(C(=O)c3ccc(Cl)cc3)ccc2N1`, the melting point amounted to 265 °C.
In the case of `COc1cc(-c2ccccc2F)nc(-c2cccc(C)n2)n1` it was 99.5 °C; in that of `CC(C)(O)Cn1c(CO)nc2c(N)nc3cc(-c4ccccc4)cnc3c21`, 244 to 245 °C; in that of `CCc1c(CCNC(=O)CCCCC(=O)OC)ccc(OC)c1OC`, 37 to 39 °C.
For `CCCCc1ncc([N+](=O)[O-])c(O)n1` the value was 67 to 69 °C; for `O=CNCN1CCCCCC1=O`, 48 °C; for `COc1ccc2c(c1)C(=O)Cc1c(C#N)cccc1S2`, 186 to 187 °C.
For `Nc1nc2ccccc2c2c1nc1n2CCOC1` the value was 258 to 259 °C.
The compound `COC(=O)COc1ccc(OC/C=C(/c2ccc(I)cc2)c2ccc3oc(C)cc3c2)cc1C` displayed a melting point of 121 to 128 °C.
For `CCC(=O)NCC1CCN(CCOc2ccccc2)CC1` the value was 85 to 86 °C.
For `Cc1ccc(Sc2c(O)c3ccc(Cl)cc3[nH]c2=O)cc1C` the value was 267 to 268 °C.
For `COC(=O)c1ccsc1S(=O)(=O)Cl` the value was 51 to 54 °C; for `COc1ccc(-c2cnn3cc(C(=O)O)cnc23)cc1OC`, 229 to 231 °C.
`Cc1ccc(S(=O)(=O)N2CCC[C@H](CC#N)c3ccccc32)cc1` yielded a melting point of 106 °C.
In the case of `CC(C)n1cc(-c2c(-c3ccccc3)nn3ccncc23)ccc1=O` it was 196 to 197 °C.
In the case of `CC(=O)NC[C@H]1CN(c2cc(F)c(N3CCC(n4cccc4)CC3)c(F)c2)C(=O)O1` it was 186 to 188 °C; in that of `O=C(O)c1ccc(CCCC2SCC(=O)N2CCC2(O)CCCCC2)s1` (stereo not given), 122 to 123 °C; in that of `Cc1cc(=O)[nH]c2ccc(OCCCN3CCN(Cc4ccc(Cl)cc4)CC3)cc12`, 195 to 197 °C.
Compound `COc1ccc(-c2cc(-c3ccc(-c4c(Cc5ccccc5)sc5ccccc45)cc3)ccc2OC(Cc2ccccc2)C(=O)O)cc1` (stereo not given) came in with a melting point of 82 to 84 °C.
Turning to `O=c1nc2c(c3ncnn13)=NC(c1ccccc1)=N2`, the melting point was greater than 300 °C.
For `O=C1c2cc(OCc3ccc4ccccc4n3)ccc2OCC1Oc1cccnc1` (stereo not given) the value was 174 to 175 °C; for `Cc1nc(-n2ccc(NCc3ccccc3)cc2=O)sc1C(=O)NCc1ccccc1`, 253 to 255 °C.
For `CNC(=O)c1cc(-c2ccc(OC)cc2)nn(Cc2ccc([N+](=O)[O-])cc2)c1=O` the value was 199 °C; for `CON=Cc1ccc(-c2ccccc2NC(=O)c2c(C)nn(C)c2F)cc1`, 114 to 116 °C.
In the case of `O=C1OC(=O)C2CC3=C(CC3)CC12` (stereo not given) it was 81 to 83 °C; in that of `CCCN(CCC)CCOc1ccc(NC(=O)c2c(OC)cccc2OC)cc1`, 116 to 120 °C; in that of `CCCCc1nc(Cl)c(COc2ccccn2)n1Cc1ccc(-c2ccccc2-c2nnn[nH]2)cc1`, 98 to 100 °C.
